Experimental data taken from ChEMBL document CHEMBL1143330, “Preliminary investigations on the synthesis and antitumor activity of 3(2H)-furanones” (Bioorg Med Chem Lett, 2009).
Active and inactive are the calls of the source. The calls are words filed in the database; no cut-off is given here.

Key:
DLA [1] = experiment: Antiproliferative activity against mouse DLA cells assessed as radiolabeled thymidine incorporation at 10 to 200 ug after 24 hrs by liquid scintillation counter; assay type: functional, cell-based
DLA [2] = experiment: Antitumor activity in mouse DLA cells xenografted Swiss albino mouse assessed as inhibition of tumor cell proliferation at 1 mg/kg, po administered after 7 days of tumor induction measured each 3 days upto 31 days; assay type: functional, organism-based; parameters: dose 1 mg/kg

Row | SMILES | Activity (DLA [1]) | Activity (DLA [2])
1 | CC(=O)OC1(c2ccccc2)OC(c2ccccc2)=C(c2ccccc2)C1=O (centres undefined) | Active | Active
2 | COC1(c2ccccc2)OC(c2ccccc2)=C(c2ccccc2)C1=O (centres undefined) | Active | Active
